Results published in patent US7037644B1, “Means and methods for monitoring non-nucleoside reverse transcriptase inhibitor antiretroviral therapy and guiding therapeutic decisions in the treatment of HIV/AIDS” (ViroLogic, Inc., priority 1998, dated 2006).
“Also recorded” adds a separate entry of the source.

Assays:
Y181 C mutation variant = conditions: Y181C selected during nevirapine monotherapy; cited from earlier work
Y188H-RTV = experiment: Phenotypic susceptibility assay (site directed mutant RTV); assay type: cell-based, HIV-1; conditions: Y188H alone
Procedure: (§1) The resistance test vectors containing a functional luciferase gene cassette were constructed and host cells were transfected with the resistance test vector DNA. The resistant test vectors contained patient-derived reverse transcriptase and protease sequences that were either susceptible or resistant to the antiretroviral agents, such as nucleoside reverse transcriptase inhibitors, non-nucleoside reverse transcriptase inhibitors and protease inhibitors. […] The IC50 values were determined by plotting percent drug inhibition vs. log10 drug concentration.
(§2) Host cells were seeded in 10-cm-diameter dishes and were transfected several days after plating with resistance test vector plasmid DNA and the envelope expression vector. […] HIV capsid protein (p24) levels in the harvested cell culture media were determined by an EIA method as described by the manufacturer (SIAC; Frederick, Md.). […] The inhibitory effect of the drug was determined using the following equation: % luciferase inhibition=1−(RLUluc [drug]÷RLUluc)×100 where RLUluc [drug] is the relative light unit of luciferase activity in infected cells in the presence of drug and RLUluc is the Relative Light Unit of luciferase activity in infected cells in the absence of drug. […]

[1] = test system: RTV-268, patient 97-268 (RT M41L, D67N, M184V, L210W, T215Y, K219Q, P236L); experiment: Phenotypic susceptibility assay (patient RTV); assay type: cell-based, HIV-1; conditions: patient virus RTV-268 vs reference virus
Description: (§3) The resistance test vectors containing a functional luciferase gene cassette were constructed and host cells were transfected with the resistance test vector DNA. The resistant test vectors contained patient-derived reverse transcriptase and protease sequences that were either susceptible or resistant to the antiretroviral agents, such as nucleoside reverse transcriptase inhibitors, non-nucleoside reverse transcriptase inhibitors and protease inhibitors. The resistance test vector viral particles produced by transfecting the resistance test vector DNA into host cells, either in the presence or absence of protease inhibitors, were used to infect target host cells grown either in the absence of NRTI or NNRTI or in the presence of increasing concentrations of the drug. The amount of luciferase activity produced in infected target host cells in the presence of drug was compared to the amount of luciferase produced in infected target host cells in the absence of drug. Drug resistance was measured as the amount of drug required to inhibit by 50% the luciferase activity detected in the absence of drug (inhibitory concentration 50%, IC50). The IC50 values were determined by plotting percent drug inhibition vs. log10 drug concentration.
(§4) Host cells were seeded in 10-cm-diameter dishes and were transfected several days after plating with resistance test vector plasmid DNA and the envelope expression vector. Transfections were performed using a calcium-phosphate precipitation procedure. The cell culture media containing the DNA precipitate was replaced with fresh medium, from one to 24 hours, after transfection. Cell culture media containing resistance test vector viral particles was harvested one to four days after transfection and was passed through a […] filter before being stored at […]. HIV capsid protein (p24) levels in the harvested cell culture media were determined by an EIA method as described by the manufacturer (SIAC; Frederick, Md.). Before infection, target cells (293 and 293/T) were plated in cell culture media. Control infections were performed using cell culture media from mock transfections (no DNA) or transfections containing the resistance test vector plasmid DNA without the envelope expression plasmid. One to three or more days after infection the media was removed and cell lysis buffer (Promega) was added to each well. Cell lysates were assayed for luciferase activity (FIG. 3). The inhibitory effect of the drug was determined using the following equation: % luciferase inhibition=1−(RLUluc [drug]÷RLUluc)×100 where RLUluc [drug] is the relative light unit of luciferase activity in infected cells in the presence of drug and RLUluc is the Relative Light Unit of luciferase activity in infected cells in the absence of drug. IC50 values were obtained from the sigmoidal curves that were generated from the data by plotting the percent inhibition of luciferase activity vs. the log10 drug concentration. The drug inhibition curves are shown in (FIG. 3).
A resistance test vector was constructed as described in Example 1 from a patient sample designated 97-268. This patient had been treated with AZT and 3TC (NRTIs), indinavir and saquinavir (PRIs) and delavirdine (an NNRTI) for periods varying from 1 month to 2 years. Isolation of viral RNA and RT/PCR was used to generate a patient derived segment that comprised viral sequences coding for all of PR and amino acids 1-313 of RT. The patient derived segment was inserted into a indicator gene viral vector to generate a resistance test vector designated RTV-268. RTV-268 was then tested using the phenotypic susceptibility assay to determine accurately and quantitatively the level of susceptibility to a panel of anti-retroviral drugs. This panel of anti-retroviral drugs comprised members of the classes known as NRTIs (AZT, 3TC, d4T, ddI and ddC), NNRTIs (delavirdine and nevirapine), and PRIs (indinavir, nelfinavir, ritonavir, and saquinavir). An IC50 was determined for each drug tested. […]

[2] = test system: RTV-964, patient 98-964 (RT Y181I); experiment: Phenotypic susceptibility assay (patient RTV); assay type: cell-based, HIV-1; conditions: patient RTV pool
Procedure: as §1, §2

[3] = test system: RTV with L100I mutation alone; experiment: Phenotypic susceptibility assay (site directed mutant RTV); assay type: cell-based, HIV-1
Description: as §3, §4
The mutations Y188L, L100I and K103N were introduced alone and in combinationn into resistance test vectors using the mega-primer method for site-directed mutagenesis (Sakar and Sommar, Ibid.).

Cc1ccnc2c1NC(=O)c1cccnc1N2C1CC1 [nevirapine]
reduction in sensitivity (Y181 C mutation variant): 100 fold
loss of susceptibility (fold, IC50) vs wild type control RTV (Y188H-RTV): 3.5 fold
change in susceptibility [1]: no change; also recorded: same as wild type
decrease in susceptibility (fold, IC50) [2]: 750 fold
loss of susceptibility (fold, IC50) vs wild type control RTV [3]: 3 fold
